The record followed here is patent US11512069B2, “TLR7/8 antagonists and uses thereof” (Merck Patent GmbH, priority 2016, dated 2022).

This assay addresses T1, TLR7 (Homo sapiens, UniProt Q9NYK1).
T1 construct: expressed in transfected cells; host or cells: HEK cells carrying TLR7 and an NF-kB reporter read with Steady-Glo
T1 sequence (Q9NYK1 27-1049): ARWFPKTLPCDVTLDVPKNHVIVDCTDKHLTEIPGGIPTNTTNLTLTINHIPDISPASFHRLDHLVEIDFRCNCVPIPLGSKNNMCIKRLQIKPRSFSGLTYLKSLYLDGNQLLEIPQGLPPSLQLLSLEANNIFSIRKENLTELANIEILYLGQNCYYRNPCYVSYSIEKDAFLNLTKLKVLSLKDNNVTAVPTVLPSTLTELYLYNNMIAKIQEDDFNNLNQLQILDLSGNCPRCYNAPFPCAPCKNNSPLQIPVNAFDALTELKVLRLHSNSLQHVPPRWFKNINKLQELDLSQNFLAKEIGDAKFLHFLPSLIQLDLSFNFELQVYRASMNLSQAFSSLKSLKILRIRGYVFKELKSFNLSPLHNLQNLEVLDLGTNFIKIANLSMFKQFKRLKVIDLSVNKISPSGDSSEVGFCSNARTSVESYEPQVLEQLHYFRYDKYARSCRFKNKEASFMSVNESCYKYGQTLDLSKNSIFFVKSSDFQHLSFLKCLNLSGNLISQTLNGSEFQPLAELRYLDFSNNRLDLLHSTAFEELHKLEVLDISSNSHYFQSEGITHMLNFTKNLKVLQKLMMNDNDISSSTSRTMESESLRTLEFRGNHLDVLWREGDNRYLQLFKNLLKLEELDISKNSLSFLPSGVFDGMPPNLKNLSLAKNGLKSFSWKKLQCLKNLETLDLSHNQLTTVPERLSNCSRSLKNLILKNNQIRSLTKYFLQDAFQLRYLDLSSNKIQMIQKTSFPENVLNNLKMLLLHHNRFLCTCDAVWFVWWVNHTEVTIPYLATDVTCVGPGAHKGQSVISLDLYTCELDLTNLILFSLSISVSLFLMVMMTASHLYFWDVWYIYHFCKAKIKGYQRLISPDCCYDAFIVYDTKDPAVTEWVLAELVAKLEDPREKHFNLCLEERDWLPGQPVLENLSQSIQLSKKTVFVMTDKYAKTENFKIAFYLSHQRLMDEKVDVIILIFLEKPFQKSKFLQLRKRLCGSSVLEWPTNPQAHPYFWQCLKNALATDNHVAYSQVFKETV
Briefly: HEK Cell Assay (TLR7/NFKb HEK reporter cells, Steady-Glo). It counts as cell-based. The conditions noted are these: compound 30 min, then R*48 agonist 5 hours, Steady-Glo readout, read-out: Potency. The essentials:
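TLR7/NF-κB HEK reporter cells cultured 24 h, then pre-incubated 30 min with compound before adding R*48 agonist. Luciferase read by Steady-Glo luminescence after 5 h.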
Turning to `Cc1ccc([C@@H]2C[C@@H](C)CN(C(=O)CC3CCN(C)CC3)C2)c2cccnc12` [Compound 80, 1-[(3R,5S)-3-Methyl-5-(8-methyl-quinolin-5-yl)-piperidin-1-yl]-2-(1-methyl-piperidin-4-yl)-ethanone], the IC50 is under 1000 nM.

For `Cc1ccc([C@H]2C[C@@H](C)CN(C(=O)CC3CCN(C)CC3)C2)c2cccnc12` [Compound 81, 1-[(3R,5R)-3-Methyl-5-(8-methyl-quinolin-5-yl)-piperidin-1-yl]-2-(1-methyl-piperidin-4-yl)-ethanone], the IC50 is under 1000 nM.

As to `Cc1ccc([C@@H]2C[C@H](C)CN(C(=O)CC3CCN(C)CC3)C2)c2cccnc12` [Compound 82, 1-[(3S,5S)-3-Methyl-5-(8-methyl-quinolin-5-yl)-piperidin-1-yl]-2-(1-methyl-piperidin-4-yl)-ethanone], the IC50 was in the range of 1000 to 20000 nM.

Take `Cc1ccc([C@H]2C[C@H](C)CN(C(=O)CC3CCN(C)CC3)C2)c2cccnc12` [Compound 83, 1-[(3S,5R)-3-Methyl-5-(8-methyl-quinolin-5-yl)-piperidin-1-yl]-2-(1-methyl-piperidin-4-yl)-ethanone]: the IC50 was under 1000 nM.

Turning to `Cc1ccc([C@H]2C[C@@H](C)CN(C(=O)CC3C4CC3CN(C)C4)C2)c2cccnc12` (stereo partly drawn) [Compound 84, 2-(3-Methyl-3-aza-bicyclo [3.1.1]hept-6-yl)-1-[(3R,5R)-3-methyl-5-(8-methyl-quinolin-5-yl)-piperidin-1-yl]-ethanone], the IC50 was under 1000 nM.

Consider `C[C@@H]1C[C@H](c2cc(F)c(C#N)c3ncccc23)CN(C(=O)CC2CCN(C)CC2)C1` [Compound 85, 7-Fluoro-5-{(3R,5R)-5-methyl-1-[2-(1-methyl-piperidin-4-yl)-acetyl]-piperidin-3-yl}-quinoline-8-carbonitrile], for which the IC50 was in the range of 1000 to 20000 nM.

As to `COc1ccc([C@@H]2C[C@@H](C)CN(C(=O)CC3CCN(C)CC3)C2)c2cccnc12` [Compound 86, 1-[(3S,5R)-3-(8-Methoxy-quinolin-5-yl)-5-methyl-piperidin-1-yl]-2-(1-methyl-piperidin-4-yl)-ethanone], the IC50 was under 1000 nM.

Regarding `COc1ccc([C@H]2C[C@@H](C)CN(C(=O)CC3CCN(C)CC3)C2)c2cccnc12` [Compound 87, 1-[(3R,5R)-3-(8-Methoxy-quinolin-5-yl)-5-methyl-piperidin-1-yl]-2-(1-methyl-piperidin-4-yl)-ethanone], the IC50 was under 1000 nM.

Consider `COc1ncc([C@@H]2C[C@@H](C)CN(C(=O)CC3CCN(C)CC3)C2)c2cccnc12` [Compound 88, 1-[(3S,5R)-3-(8-Methoxy-[1,7]naphthyridin-5-yl)-5-methyl-piperidin-1-yl]-2-(1-methyl-piperidin-4-yl)-ethanone], for which the IC50 is 1000 to 20000 nM.

For the compound `COc1ncc([C@H]2C[C@@H](C)CN(C(=O)CC3CCN(C)CC3)C2)c2cccnc12` [Compound 89, 1-[(3R,5R)-3-(8-Methoxy-[1,7]naphthyridin-5-yl)-5-methyl-piperidin-1-yl]-2-(1-methyl-piperidin-4-yl)-ethanone], the IC50 fell in the range of 1000 to 20000 nM.

Take `Cc1c(F)cc([C@H]2C[C@@H](C)CN(C(=O)CC3CCN(C)CC3)C2)c2cccnc12` [Compound 90, 1-[(3R,5R)-3-(7-Fluoro-8-methyl-quinolin-5-yl)-5-methyl-piperidin-1-yl]-2-(1-methyl-piperidin-4-yl)-ethanone]: the IC50 is under 1000 nM.

`C[C@@H]1C[C@H](c2ccc(C#N)c3ncccc23)CN(C(=O)C[C@H]2CCN(C)CC2(F)F)C1` [Compound 91, 5-{(3R,5R)-1-[2-((R)-3,3-Difluoro-1-methyl-piperidin-4-yl)-acetyl]-5-methyl-piperidin-3-yl}-quinoline-8-carbonitrile]: the IC50 was in the range of 1000 to 20000 nM.

For the compound `C[C@@H]1C[C@H](c2ccc(C#N)c3ncccc23)CN(C(=O)C[C@@H]2CCN(C)CC2(F)F)C1` [Compound 92, 5-((3R,5R)-1-[2-((S)-3,3-Difluoro-1-methyl-piperidin-4-yl)-acetyl]-5-methyl-piperidin-3-yl}-quinoline-8-carbonitrile], the IC50 was under 1000 nM.

In the case of `C[C@@H]1C[C@H](c2ccc(C#N)c3ncccc23)CN(C(=O)CC2C3CC2CN(C)C3)C1` (stereo partly drawn) [Compound 93, 5-[(3R,5R)-5-methyl-1-[2-(3-methyl-3-azabicyclo[3.1.1]heptan-6-yl)acetyl]-3-piperidyl]quinoline-8-carbonitrile], the IC50 is under 1000 nM.

As for `Cc1ncc([C@@H]2C[C@@H](C)CN(C(=O)CC3CCN(C)CC3)C2)c2cccnc12` [Compound 94, 1-[(3R,5S)-3-Methyl-5-(8-methyl-[1,7]naphthyridin-5-yl)-piperidin-1-yl]-2-(1-methyl-piperidin-4-yl)-ethanone], the IC50 was 1000 to 20000 nM.

With `Cc1ncc([C@H]2C[C@@H](C)CN(C(=O)CC3CCN(C)CC3)C2)c2cccnc12` [Compound 95, 1-[(3R,5R)-3-Methyl-5-(8-methyl-[1,7]naphthyridin-5-yl)-piperidin-1-yl]-2-(1-methyl-piperidin-4-yl)-ethanone], the IC50 was 1000 to 20000 nM.

In the case of `C[C@@H]1C[C@@H](c2ccc(C#N)c3ncccc23)CN(C(=O)CN2CCN(C)CC2)C1` [Compound 96, 5-{(3S,5R)-5-Methyl-1-[2-(4-methyl-piperazin-1-yl)-acetyl]-piperidin-3-yl}-quinoline-8-carbonitrile], the IC50 lay in the range of 1000 to 20000 nM.

As for `C[C@@H]1C[C@H](c2ccc(C#N)c3ncccc23)CN(C(=O)CN2CCN(C)CC2)C1` [Compound 97, 5-((3R,5R)-5-Methyl-1-[2-(4-methyl-piperazin-1-yl)-acetyl]-piperidin-3-yl}-quinoline-8-carbonitrile], the IC50 is under 1000 nM.

On to `C[C@@H]1C[C@H](c2ccc(C#N)c3ncccc23)CN(C(=O)C2(N)CC2)C1` [Compound 98, 5-[(3R,5R)-1-(1-Amino-cyclopropanecarbonyl)-5-methyl-piperidin-3-yl]-quinoline-8-carbonitrile], for which the IC50 is over 20000 nM.

Consider `C[C@@H]1C[C@@H](c2ccc(C#N)c3ncccc23)CN(C(=O)C2CC(N)C2)C1` (stereo partly drawn) [Compound 99, 5-[(3S,5R)-1-(3-aminocyclobutanecarbonyl)-5-methyl-3-piperidyl]quinoline-8-carbonitrile], for which the IC50 fell in the range of 1000 to 20000 nM.

On to `C[C@@H]1C[C@H](c2ccc(C#N)c3ncccc23)CN(C(=O)C2CC(N)C2)C1` (stereo partly drawn) [Compound 100, 5-[(3R,5R)-1-(3-aminocyclobutanecarbonyl)-5-methyl-3-piperidyl]quinoline-8-carbonitrile], for which the IC50 is under 1000 nM.

Turning to `C[C@H]1C[C@H](c2ccc(C#N)c3nccnc23)CN(C(=O)CC2CCN(C)CC2)C1` [Compound 101, 8-{(3R,5S)-5-Methyl-1-[2-(1-methyl-piperidin-4-yl)-acetyl]-piperidin-3-yl}-quinoxaline-5-carbonitrile], the IC50 is over 20000 nM.

As for `C[C@H]1C[C@@H](c2ccc(C#N)c3nccnc23)CN(C(=O)CC2CCN(C)CC2)C1` [Compound 102, 8-{(3S,5S)-5-Methyl-1-[2-(1-methyl-piperidin-4-yl)-acetyl]-piperidin-3-yl}-quinoxaline-5-carbonitrile], the IC50 was under 1000 nM.

Take `C[C@@H]1C[C@H](c2ccc(OC(F)(F)F)c3ncccc23)CN(C(=O)CC2CCN(C)CC2)C1` [Compound 103, 2-(1-Methyl-piperidin-4-yl)-1-[(3R,5R)-3-methyl-5-(8-trifluoromethoxy-quinolin-5-yl)-piperidin-1-yl]-ethanone]: the IC50 was in the range of 1000 to 20000 nM.
